Experiments:
[1] = molecular target: T1, IDH1^R132H homodimer enzyme (Homo sapiens, UniProt O75874, R132H); test: NADPH depletion assay, IDH1 R132H; type: biochemical
T1 construct: purchased not specified
Summary of the method: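 IDH1 R132H enzyme (8 nM as diluted) in Tris-HCl pH 7.6 with 10 mM MgCl2, 0.001% Triton X-100 and 4 mM β-mercaptoethanol is preincubated 15 min at RT with compound. Substrate mix (12 uM NADPH, 3.4 mM α-ketoglutarate) is added for 60 min; remaining NAD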

IDH1^R132C = molecular target: T2, IDH1^R132C (Homo sapiens, UniProt O75874, R132C); test: NADPH depletion assay, IDH1 R132C; type: biochemical
T2 construct: purchased not specified
T2 sequence (O75874 whole entry R132C): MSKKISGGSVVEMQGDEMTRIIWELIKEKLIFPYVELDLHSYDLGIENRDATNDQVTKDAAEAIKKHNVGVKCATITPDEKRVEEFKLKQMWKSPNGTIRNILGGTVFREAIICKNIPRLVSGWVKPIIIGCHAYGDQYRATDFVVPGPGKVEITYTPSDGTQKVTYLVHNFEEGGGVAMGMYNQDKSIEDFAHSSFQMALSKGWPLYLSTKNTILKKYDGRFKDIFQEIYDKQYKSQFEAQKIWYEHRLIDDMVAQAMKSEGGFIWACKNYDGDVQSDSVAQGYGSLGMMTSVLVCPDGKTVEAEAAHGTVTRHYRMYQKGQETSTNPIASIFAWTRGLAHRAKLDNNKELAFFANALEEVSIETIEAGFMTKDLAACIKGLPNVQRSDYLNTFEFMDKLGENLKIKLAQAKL
Summary of the method: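 Fluorescence readout (Ex544/Em590) of NADPH left after diaphorase/resazurin addition. Alpha-ketoglutarate 0.14 mM final, enzyme 2 nM final; compound preincubation 15 min, then 60 min reaction, both at room temperature, pH 7.6 Tris buffer.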

IDH2^R172K = molecular target: T3, IDH2^R172K (Homo sapiens, UniProt P48735, R172K); test: NADPH depletion assay, IDH2 R172K; type: biochemical
T3 construct: purchased not specified
T3 sequence (P48735 40-452 R172K): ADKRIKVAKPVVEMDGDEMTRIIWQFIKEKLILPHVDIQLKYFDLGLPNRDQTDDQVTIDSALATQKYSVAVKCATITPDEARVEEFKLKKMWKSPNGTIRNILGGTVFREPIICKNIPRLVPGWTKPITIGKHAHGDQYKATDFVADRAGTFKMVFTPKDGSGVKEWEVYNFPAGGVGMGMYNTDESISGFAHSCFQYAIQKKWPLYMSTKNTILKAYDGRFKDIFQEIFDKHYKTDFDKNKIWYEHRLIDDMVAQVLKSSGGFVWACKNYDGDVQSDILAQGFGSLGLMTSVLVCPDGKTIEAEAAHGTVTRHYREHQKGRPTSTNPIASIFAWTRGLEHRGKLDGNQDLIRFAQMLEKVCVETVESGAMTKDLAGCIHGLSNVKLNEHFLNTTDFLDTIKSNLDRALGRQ
Summary of the method: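 This NADPH depletion assay measures NADPH left after conversion of alpha-ketoglutarate (0.55 mM final) by 16 nM IDH2 R172K over 60 min at room temperature, after a 15 min compound preincubation in pH 7.6 Tris buffer. Substrate mix held 12 μM NADPH. Diaphorase/resazurin gave the fluorescence read-out at 544/590 nm.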

IDH1WT enzyme = molecular target: T4, IDH1WT enzyme (Homo sapiens, UniProt O75874); test: Enzymatic assay for IDH1 wild-type (NADPH forming assay); type: biochemical
T4 construct: purchased not specified
T4 sequence (O75874 whole entry): as the sequence (O75874 whole entry R132C) above, with C132R counted along it
Protocol: IDH1WT enzymatic activity converting isocitric acid to alpha-ketoglutarate is measured using a NADPH forming assay. In the assay the forming cofactor is measured in continuous with the addition of a catalytic excess of diaphorase and resazurin, to generate a fluorescent signal in proportion to the amount of NADPH forming.
Compounds were preincubated with the enzyme, then the reaction was started by the addition of NADP^+, isocitrate, diaphorase and a corresponding substrate, resazurin. Diaphorase reduces resazurin to the highly fluorescent resorufin with the concomitant oxidation of NADPH to NADP. Specifically, 0.2 uL of test compound, previously serially diluted 1 to 3, 10 experimental points from 1 mM in DMSO, was added to 0.016 nM IDH1WT enzyme in 10 μL of Assay Buffer (150 mM NaCl, 50 mM Tris-HCl pH 7.6, 10 mM MgCl2, 0.001% Triton X-100, 4 mM β-mercaptoethanol); the mixture is incubated for 15 minutes at room temperature. The reaction is started with the addition of 10 μL of Substrate Mix (400 μM NADP^+, 40 μM iso-citrate, 5 ugr/mL Diaphorase and 7 μM resazurin in Assay Buffer), the mixture is incubated at room temperature and the reaction is reading on a ViewLux as platereader at Ex544/Em590 in continuous.

HT-1080 (IDH1^R132C) = test: Cellular 2-HG production assay, HT-1080; type: cell-based; settings: Homo sapiens, HT-1080, 72 h, inhibition of 2HG production, 72 hr incubation, LC-MS/MS; read-out: HT1080 2-HG IC50
Summary of the method: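 Cells in E-MEM/10% FCS (G418 500 μg/mL for the transfected U87-MG line) at 500 per well got compound 24 h after seeding and were incubated 72 h at 37 °C. Medium 2-HG was measured by LC-MS/MS with 2-HG-d3 internal standard; IC50 came from sigmoidal fitting versus controls.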

T1 sequence (O75874 whole entry R132H): as the sequence (O75874 whole entry R132C) above, with C132H counted along it

Structure (SMILES)	IC50 [1] [nM]	IC50 (IDH1^R132C) [nM]	IC50 (IDH2^R172K) [nM]	IC50 (IDH1WT enzyme) [nM]	IC50 (HT-1080 (IDH1^R132C)) [nM]
C=CC(=O)N1CCN([C@H](CC2CC2)c2ccc(C3(Nc4ncc5ccc(=O)n(C(C)C)c5n4)CC3)cc2)CC1 (single isomer, unassigned) [cpd 245]	2	2	20	224	1
C=CC(=O)N1CCN([C@@H](CC2CC2)c2ccc(C3(Nc4ncc5ccc(=O)n(C(C)C)c5n4)CC3)cc2)CC1 (single isomer, unassigned) [cpd 246]	2	1	19	231	2.1
C=CC(=O)N1CCN([C@H](CC)c2ccc(C3(Nc4ncc5ccc(=O)n(C(C)C)c5n4)CC3)cc2)CC1 (single isomer, unassigned) [cpd 248]	4	2	30	216	3.1
C=CC(=O)N1CCN([C@@H](CC)c2ccc(C3(Nc4ncc5ccc(=O)n(C(C)C)c5n4)CC3)cc2)CC1 (single isomer, unassigned) [cpd 249]	5	3	33	215	2.9
C=CC(=O)N1CCN(Cc2ccc([C@H](C)Nc3ncc4ccc(=O)n([C@@H](C)C(C)C)c4n3)cc2)CC1 [cpd 161, 2-{(S)-1-[4-(4-Acryloyl-piperazin-1-ylmethyl)-phenyl]-ethylamino}-8-((S)-1,2-dimethyl-propyl)-8H-pyrido[2,3-d]pyrimidin-7-one]	22	13	299	908	–
C=C(C)C(=O)N1CCN(Cc2ccc([C@H](C)Nc3ncc4ccc(=O)n([C@@H](C)C(C)C)c4n3)cc2)CC1 [cpd 162, 8-((S)-1,2-Dimethyl-propyl)-2-((S)-1-{4-[4-(2-methyl-acryloyl)-piperazin-1-ylmethyl]-phenyl}-ethylamino)-8H-pyrido[2,3-d]pyrimidin-7-one]	84	30	–	3900	–
C=CC(=O)N1CC=C(c2ccc([C@H](C)Nc3ncc4ccc(=O)n([C@@H](C)C(C)C)c4n3)cc2)CC1 [cpd 168, 2-({(1S)-1-[4-(1-acryloyl-1,2,3,6-tetrahydropyridin-4-yl)phenyl]ethyl}amino)-8-[(2S)-3-methylbutan-2-yl]pyrido [2,3-d]pyrimidin-7(8H)-one]	29	16	137	758	–
C=CC(=O)N1CCN(Cc2ccc([C@H](C)Nc3ncc4ccc(=O)n([C@@H](C)C(F)(F)F)c4n3)cc2)CC1 [cpd 169, 2-{[(1S)-1-{4-[(4-acryloylpiperazin-1-yl)methyl]phenyl}ethyl]amino}-8-[(2S)-1,1,1-trifluoropropan-2-yl]pyrido [2,3-d]pyrimidin-7(8H)-one]	193	179	414	2850	–
C=CC(=O)N1CCN(c2ccc([C@H](C)Nc3ncc4ccc(=O)n([C@@H](C)C(C)C)c4n3)cn2)CC1 [cpd 181, 2-({(1S)-1-[6-(4-acryloylpiperazin-1-yl)pyridin-3-yl]ethyl}amino)-8-[(2S)-3-methylbutan-2-yl]pyrido[2,3-d]pyrimidin-7(8H)-one]	175	351	878	2140	–
C=CC(=O)N1CCN(Cc2ccc([C@H](C)Nc3ncc4ccc(=O)n(C(C)C)c4n3)cc2F)CC1 [cpd 183, 2-{[(1S)-1-{4-[(4-acryloylpiperazin-1-yl)methyl]-3-fluorophenyl}ethyl]amino}-8-(propan-2-yl)pyrido[2,3-d]pyrimidin-7(8H)-one]	52	39	–	899	21
C=CC(=O)N1CCN(Cc2ccc([C@H](C)Nc3ncc4ccc(=O)n(C(C)C)c4n3)cc2)CC1 [cpd 184, 2-{[(1S)-1-{4-[(4-acryloylpiperazin-1-yl)methyl]phenyl}ethyl]amino}-8-(propan-2-yl)pyrido[2,3-d]pyrimidin-7(8H)-one]	126	227	201	2870	28
C=CC(=O)N1CCN(Cc2ccc([C@H](C)Nc3ncc4ccc(=O)n(CC)c4n3)cc2)CC1 [cpd 186, 2-{[(1S)-1-{4-[(4-acryloylpiperazin-1-yl)methyl]phenyl}ethyl]amino}-8-ethylpyrido[2,3-d]pyrimidin-7(8H)-one]	392	811	431	5460	–
C=CC(=O)N1CCN(C(CC)c2ccc([C@H](C)Nc3ncc4ccc(=O)n(C(C)C)c4n3)cc2)CC1 (stereo partly drawn) [cpd 187, 2-{[(1S)-1-{4-[1-(4-acryloylpiperazin-1-yl)propyl]phenyl}ethyl]amino}-8-(propan-2-yl)pyrido[2,3-d]pyrimidin-7(8H)-one]	2	2	18	541	< 1
C=CC(=O)N1CCN(C(=O)c2ccc([C@H](C)Nc3ncc4ccc(=O)n([C@@H](C)C(C)C)c4n3)cc2F)CC1 [cpd 191, 2-{[(1S)-1-{4-[(4-acryloylpiperazin-1-yl)carbonyl]-3-fluorophenyl}ethyl]amino}-8-[(2S)-3-methylbutan-2-yl]pyrido[2,3-d]pyrimidin-7(8H)-one]	70	116	902	2990	40
C=CC(=O)N1CCN(Cc2ccc([C@H](C)Nc3nc(N)c4ccc(=O)n(C(C)C)c4n3)cc2)CC1 [cpd 206, 2-{[(1S)-1-{4-[(4-acryloylpiperazin-1-yl)methyl]phenyl}ethyl]amino}-4-amino-8-(propan-2-yl)pyrido[2,3-d]pyrimidin-7(8H)-one]	13	15	98	221	10.1
C=CC(=O)N1CCN(C(CC)c2ccc([C@H](C)Nc3ncc4ccc(=O)n(CC)c4n3)cc2)CC1 (stereo partly drawn) [cpd 214, 2-{[(1S)-1-{4-[1-(4-acryloylpiperazin-1-yl)propyl]phenyl}ethyl]amino}-8-ethylpyrido[2,3-d]pyrimidin-7(8H)-one]	4	2	15	64	2.1
C=CC(=O)N1CCN([C@H](CC2CC2)c2ccc([C@H](C)Nc3ncc4ccc(=O)n(C(C)C)c4n3)cc2)CC1 [cpd 231, 2-{[(1S)-1-{4-[(1R)-1-(4-acryloylpiperazin-1-yl)-2-cyclopropylethyl]phenyl}ethyl]amino}-8-(propan-2-yl) pyrido [2,3-d]pyrimidin-7(8H)-one]	1	1	14	122	0.3
C=CC(=O)N1CCC(C#N)(c2ccc([C@H](C)Nc3ncc4ccc(=O)n(C(C)C)c4n3)cc2)CC1 [cpd 241, 1-acryloyl-4-{4-[(1S)-1-{[7-oxo-8-(propan-2-yl)-7,8-dihydropyrido[2,3-d]pyrimidin-2-yl]amino}ethyl]phenyl}piperidine-4-carbonitrile]	272	196	146	117	64.7

Source: patent US12018023B2 (NERVIANO MEDICAL SCIENCES S.R.L., priority 2018, dated 2024)
